Key:
Format in all cases: biochemical
[1] = biological target: T1, Human PDE7B (hPDE7B) (Homo sapiens, UniProt Q9NP56); experiment: Measurement of PDE7 inhibitory activity (Experimental Example 1; residual cAMP, LANCE Ultra cAMP TR-FRET); settings: cAMP 3 nmol/L, room temperature 60 minutes
T1 construct: made in house; host or cells: COS-7 cells
How it was run: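 hPDE7B from transfected COS-7 cells reacted with 3 nmol/L cAMP (final) and compound (2% DMSO) in 50 mmol/L Tris-HCl pH 7.5, 1 mmol/L MgCl2, 0.1% BSA, 0.5 mmol/L DTT, 60 min at room temperature. Reaction stopped with IBMX; residual cAMP measured by TR-FRET. Inhibition scaled between no-compound and no-enzyme controls.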

[2] = biological target: T2, hPDE1A (Homo sapiens, UniProt P54750); experiment: PDE7 selectivity test (Ki value), Experimental Example 2: hPDE1A; settings: Ki from IC50 by Cheng-Prusoff, read-out: PDE inhibition constant Ki, PDE1
T2 construct: purchased SB Drug Discovery
T2 sequence (P54750 whole entry): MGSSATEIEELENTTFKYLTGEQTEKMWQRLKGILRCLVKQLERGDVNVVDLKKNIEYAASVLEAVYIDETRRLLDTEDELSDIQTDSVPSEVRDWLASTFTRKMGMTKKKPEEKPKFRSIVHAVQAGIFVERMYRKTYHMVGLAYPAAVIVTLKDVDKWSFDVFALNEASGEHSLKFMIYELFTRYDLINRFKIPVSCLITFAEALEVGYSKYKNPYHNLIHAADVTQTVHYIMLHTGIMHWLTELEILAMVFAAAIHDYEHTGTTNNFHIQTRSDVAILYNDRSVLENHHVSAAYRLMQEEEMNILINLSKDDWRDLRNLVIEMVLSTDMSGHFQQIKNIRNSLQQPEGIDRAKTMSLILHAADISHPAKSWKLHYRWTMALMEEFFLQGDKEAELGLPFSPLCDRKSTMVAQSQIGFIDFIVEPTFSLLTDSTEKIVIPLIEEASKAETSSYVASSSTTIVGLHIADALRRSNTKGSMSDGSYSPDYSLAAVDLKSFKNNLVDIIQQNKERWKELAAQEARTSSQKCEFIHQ
Method: (§1) hPDE1A, hPDE2A, hPDE3A, hPDE4D, hPDE5A, and hPDE8B were purchased from SB Drug Discovery. hPDE7B was isolated by the same method as [Method for preparing samples 1], and hPDE9A, hPDE10A, and hPDE11A were isolated by the same method as hPDE7B, i.e., isolated from COS-7 cells transfected with plasmids encoding each PDE. PDE6 was purified and isolated from bovine retina (bovine PDE6).
(§2) Prior to the calculation of Ki value, Km value of each PDE against cAMP or cGMP was calculated. Each PDE diluted with an assay buffer so that it would have an appropriate enzyme activity, and six or more concentrations of cAMP or cGMP were reacted at room temperature for 60 minutes. Regarding PDE using cAMP as a substrate, PDELight (trademark) HTS cAMP phosphodiesterase Kit (Lonza) was used to measure a degradation product, 5′-AMP. Also, regarding PDE using cGMP as a substrate, […] of perchloric acid was added to the mixture to stop the reaction, and the resulting mixture was subjected to LC-MS/MS to measure the residual cGMP concentration. The amount of degraded substrate in each substrate concentration was calculated, the concentration of the added substrate was plotted on the horizontal axis, the amount of degraded substrate was plotted on the vertical axis, and Km value was calculated by non-linear regression on the basis of Michaelis-Menten equation. Km value (substrate) of each PDE was hPDE1A: 4.3 (cGMP), hPDE2A: 36 (cAMP), hPDE3A: 0.11 (cAMP), hPDE4D: 0.90 (cAMP), hPDE5A: 3.9 (cGMP), bovine PDE6:9.8 (cGMP), hPDE7B: 0.015 (cAMP), hPDE8B: 0.63 (cAMP), hPDE9A: 0.0037 (cGMP), hPDE10A: 0.051 (cAMP), and hPDE11A: 1.4 (cAMP) μmol/L, respectively.
(§3) Next, PDE inhibition assay of a compound was carried out using each PDE. The PDE inhibition assay was basically carried out by the same enzyme reaction method as [Assay procedure 1], and the degraded amount of cAMP or cGMP was measured by the same method as [Assay procedure 2]. In the assay, a concentration approximated to Km value of each PDE against cAMP or cGMP was used as a substrate concentration. Meanwhile, regarding hPDE5A, hPDE8B, and hPDE9A, IMAP (trademark) FP Phosphodiesterase Evaluation Assay Kit (Molecular Devices) was used to measure the degradation of FAM-cAMP or FAM-cGMP by fluorescence depolarization technique.
(§4) Each compound was evaluated at six or more concentrations with common ratio 10. Each inhibition rate was calculated according to <Method for data calculation 1>, and then each IC50 value was calculated by sigmoid regression. The resulting IC50 value was used in the following Cheng-Prusoff equation to calculate each Ki value. Ki=IC50/(1+[S]/Km), wherein [S] represents a substrate concentration used

[3] = biological target: T3, hPDE2A (Homo sapiens, UniProt O00408); experiment: PDE7 selectivity test (Ki value), Experimental Example 2: hPDE2A; settings: Ki from IC50 by Cheng-Prusoff, read-out: PDE inhibition constant Ki, PDE2
T3 construct: purchased SB Drug Discovery
T3 sequence (O00408 whole entry): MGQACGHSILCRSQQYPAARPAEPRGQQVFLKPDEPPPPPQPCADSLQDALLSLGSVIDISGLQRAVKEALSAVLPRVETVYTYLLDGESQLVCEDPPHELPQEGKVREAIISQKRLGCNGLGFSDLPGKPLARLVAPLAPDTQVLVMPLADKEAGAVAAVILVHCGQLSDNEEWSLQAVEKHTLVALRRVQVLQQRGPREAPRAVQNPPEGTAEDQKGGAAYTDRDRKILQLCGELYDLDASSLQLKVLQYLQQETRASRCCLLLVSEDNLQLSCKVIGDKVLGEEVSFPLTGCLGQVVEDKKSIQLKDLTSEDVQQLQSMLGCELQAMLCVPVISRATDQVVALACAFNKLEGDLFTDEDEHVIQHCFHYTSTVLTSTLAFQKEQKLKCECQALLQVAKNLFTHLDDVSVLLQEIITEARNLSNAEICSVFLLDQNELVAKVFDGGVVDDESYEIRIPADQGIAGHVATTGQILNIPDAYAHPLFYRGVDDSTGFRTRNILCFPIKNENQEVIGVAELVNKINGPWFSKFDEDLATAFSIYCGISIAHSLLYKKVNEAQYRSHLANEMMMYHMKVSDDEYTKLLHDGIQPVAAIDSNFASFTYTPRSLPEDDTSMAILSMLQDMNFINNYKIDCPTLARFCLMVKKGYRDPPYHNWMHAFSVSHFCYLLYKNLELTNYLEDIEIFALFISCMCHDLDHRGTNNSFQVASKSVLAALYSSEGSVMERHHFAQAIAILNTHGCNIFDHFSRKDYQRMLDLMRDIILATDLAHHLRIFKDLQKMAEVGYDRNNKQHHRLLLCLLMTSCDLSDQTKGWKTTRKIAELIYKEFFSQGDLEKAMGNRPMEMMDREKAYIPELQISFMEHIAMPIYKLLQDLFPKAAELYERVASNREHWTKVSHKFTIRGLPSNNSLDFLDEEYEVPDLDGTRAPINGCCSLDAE
Method: as §1, §2, §3, §4

[4] = biological target: T4, hPDE5A (Homo sapiens, UniProt O76074); experiment: PDE7 selectivity test (Ki value), Experimental Example 2: hPDE5A; settings: Ki from IC50 by Cheng-Prusoff, read-out: PDE inhibition constant Ki, PDE5
T4 construct: purchased SB Drug Discovery
Method: as §1, §2, §3, §4

[5] = biological target: T5, hPDE9A (Homo sapiens, UniProt O76083); experiment: PDE7 selectivity test (Ki value), Experimental Example 2: hPDE9A; settings: Ki from IC50 by Cheng-Prusoff, read-out: PDE inhibition constant Ki, PDE9
T5 construct: made in house; host or cells: COS-7 cells
T5 sequence (O76083 whole entry): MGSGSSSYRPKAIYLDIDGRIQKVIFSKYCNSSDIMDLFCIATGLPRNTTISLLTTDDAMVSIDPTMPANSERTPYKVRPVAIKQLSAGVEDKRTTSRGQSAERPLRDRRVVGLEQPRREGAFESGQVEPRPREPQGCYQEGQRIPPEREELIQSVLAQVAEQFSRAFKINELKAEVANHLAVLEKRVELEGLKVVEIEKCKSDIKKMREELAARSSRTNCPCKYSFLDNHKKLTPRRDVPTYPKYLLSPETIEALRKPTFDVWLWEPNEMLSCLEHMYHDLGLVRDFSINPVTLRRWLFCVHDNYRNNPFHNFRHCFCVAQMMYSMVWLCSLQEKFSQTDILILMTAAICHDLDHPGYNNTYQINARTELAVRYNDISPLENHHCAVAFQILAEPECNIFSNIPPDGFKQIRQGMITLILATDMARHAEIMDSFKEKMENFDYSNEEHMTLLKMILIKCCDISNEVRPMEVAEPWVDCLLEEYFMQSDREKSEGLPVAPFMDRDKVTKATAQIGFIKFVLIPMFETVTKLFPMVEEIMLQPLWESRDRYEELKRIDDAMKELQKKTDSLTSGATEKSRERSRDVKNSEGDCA
Method: as §1, §2, §3, §4

[6] = biological target: T6, hPDE10A (Homo sapiens, UniProt Q9Y233); experiment: PDE7 selectivity test (Ki value), Experimental Example 2: hPDE10A; settings: Ki from IC50 by Cheng-Prusoff, read-out: PDE inhibition constant Ki, PDE10
T6 sequence (Q9Y233 290-1055 limits assumed): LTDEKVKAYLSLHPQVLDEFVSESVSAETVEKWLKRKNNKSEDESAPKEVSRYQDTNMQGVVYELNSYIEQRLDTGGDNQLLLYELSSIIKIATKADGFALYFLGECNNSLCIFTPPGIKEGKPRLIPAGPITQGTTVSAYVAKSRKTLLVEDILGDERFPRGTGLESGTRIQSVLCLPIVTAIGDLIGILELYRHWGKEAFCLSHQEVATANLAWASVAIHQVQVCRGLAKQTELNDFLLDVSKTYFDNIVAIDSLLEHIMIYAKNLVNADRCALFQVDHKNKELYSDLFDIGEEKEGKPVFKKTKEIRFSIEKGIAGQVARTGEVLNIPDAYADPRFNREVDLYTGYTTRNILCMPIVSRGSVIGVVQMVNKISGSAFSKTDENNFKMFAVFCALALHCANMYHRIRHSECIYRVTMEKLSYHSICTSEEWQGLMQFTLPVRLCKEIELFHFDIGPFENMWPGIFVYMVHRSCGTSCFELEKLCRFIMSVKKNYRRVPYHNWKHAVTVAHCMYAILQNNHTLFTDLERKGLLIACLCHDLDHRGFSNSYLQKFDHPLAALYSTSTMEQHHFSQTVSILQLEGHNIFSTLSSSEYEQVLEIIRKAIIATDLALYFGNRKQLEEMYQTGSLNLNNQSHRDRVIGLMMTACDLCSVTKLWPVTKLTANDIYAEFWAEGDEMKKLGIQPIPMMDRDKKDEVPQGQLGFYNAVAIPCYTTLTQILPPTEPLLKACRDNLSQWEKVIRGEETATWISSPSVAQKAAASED
Method: as §1, §2, §3, §4

[7] = biological target: T6, hPDE10A; experiment: PDE10 inhibition assay (IC50), Experimental Example 3; settings: for IC50: hPDE10A, read-out: PDE inhibition assay IC50, PDE10; for inhibition at 10 µM: at 10 μmol/L, read-out: inhibition rate (%) at prescribed concentration, PDE10
How it was run: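 Recombinant human enzymes incubated with compound and 3 nmol/L cAMP (final) in Tris-HCl pH 7.5 buffer with MgCl2, BSA, DTT, 2% DMSO final, 60 min at room temperature. Residual cAMP measured by TR-FRET (LANCE Ultra), reaction stopped with 0.5 mmol/L IBMX. IC50 from inhibition relative to no-compound (0%) and no-enzyme (100%) controls.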

T1 sequence (Q9NP56 whole entry): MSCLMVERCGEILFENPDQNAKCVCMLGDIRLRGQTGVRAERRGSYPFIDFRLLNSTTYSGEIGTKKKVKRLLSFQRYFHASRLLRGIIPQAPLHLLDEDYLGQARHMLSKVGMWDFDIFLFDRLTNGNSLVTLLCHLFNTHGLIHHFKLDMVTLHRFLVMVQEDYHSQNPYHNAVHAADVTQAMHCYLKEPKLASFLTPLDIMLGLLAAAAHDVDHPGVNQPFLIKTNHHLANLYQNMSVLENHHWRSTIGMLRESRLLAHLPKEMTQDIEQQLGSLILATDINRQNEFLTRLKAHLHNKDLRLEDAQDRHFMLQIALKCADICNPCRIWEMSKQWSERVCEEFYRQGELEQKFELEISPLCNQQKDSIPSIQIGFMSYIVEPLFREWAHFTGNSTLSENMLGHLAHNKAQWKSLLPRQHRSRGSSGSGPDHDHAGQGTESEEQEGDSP

`CC1CCCCC1n1nnc2c(N)ncnc21` (single isomer, unassigned) [Example 191, 3-(cis-2-methylcyclohexyl)-3H-[1,2,3]triazolo[4,5-d]pyrimidin-7-amine] showed an IC50 [1] of under 0.01 µM, a Ki [2] of 39 µM and a Ki [3] of 10 µM. The Ki [4] was over 98 µM, the Ki [5] was over 3.6 µM and the Ki [6] was 2.4 µM. It also gave an IC50 [7] of 3.49 µM.

`Nc1ncnc2c1nnn2C1CCCCC1` [Example 3, 3-cyclohexyl-3H-[1,2,3]triazolo[4,5-d]pyrimidin-7-amine] was tested, and the IC50 [1] was 0.05 µM, the Ki [2] was over 52 µM and the Ki [3] was 27 µM. The Ki [4] was over 98 µM, the Ki [5] was over 3.6 µM and the Ki [6] was 12 µM. The inhibition at 10 µM [7] was 27%.

Work on `Cc1nc(N)c2nnn(C3CCCCC3)c2n1` [Example 4] yielded an IC50 [1] of 0.05 µM, a Ki [2] of over 5.2 µM and a Ki [3] of 6.6 µM. For the same compound, the Ki [4] was over 9.8 µM, the Ki [5] was over 0.36 µM and the Ki [6] was 1.1 µM. For the same compound, the IC50 [7] was 1.75 µM.

`Nc1nccn2c(C3CCCCC3)nnc12` [Example 141, 3-cyclohexyl[1,2,4]triazolo[4,3-a]pyrazin-8-amine] showed an IC50 [1] of 0.01 µM, a Ki [2] of over 5.2 µM and a Ki [3] of over 5.1 µM. It also gave a Ki [4] of over 9.8 µM, a Ki [5] of over 0.36 µM and a Ki [6] of over 5.1 µM. The inhibition at 10 µM [7] was 30%.

`C[C@@H]1CCC[C@H](c2nnc3c(N)nccn23)C1` [Example 204, 3-[(1S,3R)-3-methylcyclohexyl][1,2,4]triazolo[4,3-a]pyrazin-8-amine] showed an IC50 [1] of under 0.01 µM, a Ki [2] of 8.9 µM and a Ki [3] of 14 µM. For the same compound, the Ki [4] was over 98 µM, the Ki [5] was over 3.6 µM and the Ki [6] was 2.6 µM. It also gave an IC50 [7] of 2.93 µM.

Source: US20190185479A1, “BICYCLIC NITROGENATED HETEROCYCLIC COMPOUND” (MITSUBISHI TANABE PHARMA CORPORATION, priority 2016, published 2019)
